Laboratory results reported in ChEMBL document CHEMBL1143129.

Assays:
[1] = target: Carbonic anhydrase 13 (Mus musculus) (UniProt Q9D6N1); assay: Inhibition of mouse recombinant full length carbonic hydrase 13 by stopped-flow CO2 hydration assay
[2] = target: Carbonic anhydrase 3 (Homo sapiens) (UniProt P07451)
Carbonic anhydrase 3 (Homo sapiens), sequence (P07451 whole entry): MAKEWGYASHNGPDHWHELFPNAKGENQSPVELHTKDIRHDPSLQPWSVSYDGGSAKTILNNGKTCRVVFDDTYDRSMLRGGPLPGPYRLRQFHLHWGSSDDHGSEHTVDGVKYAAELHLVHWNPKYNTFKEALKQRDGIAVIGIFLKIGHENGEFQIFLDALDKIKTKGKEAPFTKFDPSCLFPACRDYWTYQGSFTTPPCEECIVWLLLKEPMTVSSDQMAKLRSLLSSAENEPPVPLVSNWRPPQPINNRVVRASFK
Description: Inhibition of human recombinant full length carbonic hydrase 3 by stopped-flow CO2 hydration assay

Carbonic anhydrase 13 (Mus musculus), sequence (Q9D6N1 whole entry, looked up): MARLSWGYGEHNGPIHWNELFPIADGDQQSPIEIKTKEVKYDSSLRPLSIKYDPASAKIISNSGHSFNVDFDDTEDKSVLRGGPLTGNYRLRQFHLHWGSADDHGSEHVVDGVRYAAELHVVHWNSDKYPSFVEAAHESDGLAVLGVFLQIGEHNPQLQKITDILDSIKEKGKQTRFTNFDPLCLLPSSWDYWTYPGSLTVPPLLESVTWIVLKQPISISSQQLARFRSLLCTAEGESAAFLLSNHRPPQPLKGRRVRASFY

Compound | Ki [1] | Kinact [2]
CN(C)c1nnc(CS(N)(=O)=O)s1 | 20 nM | 3.6 10^5nM
CC(=O)/N=c1/sc(S(N)(=O)=O)nn1C |  | 7 10^5nM
